According to publication PMC5085131, “Cyclic AMP efflux inhibitors as potential therapeutic agents for leukemia” (Oncotarget, 2016):
Where two headings read alike, the source gives them in different places. One block for each compound: values may come before it.

Key:
U937 cells [1] = test: F-cAMP efflux assay in U937 cells (screen and dose response); type: cell-based, human; details: for Outcome of screen for inhibitors of cAMP efflux after dose-response validation: screen at 10 μM, 51 hits retested in dose-response
Procedure: (§1) Cells were loaded with F-cAMP as described. Briefly, cells were resuspended in a hypertonic solution containing 10% polyethylene glycol 1000, 0.5 M sucrose, and 250 μM F-cAMP in cRPMI without FBS, incubated 10 min at room temperature, washed, and then resuspended in hypotonic solution (60% cRPMI, 40% sterile water) for 2 min at room temperature to complete F-cAMP loading. Cells were resuspended in cRPMI and equilibrated for 2 h under normal culture conditions.
(§2) Samples were evaluated using Accuri C6 or BD FACScan flow cytometers (Becton Dickinson (BD)).
Liquid handling was accomplished with a Biomek FX Multichannel system (Beckman-Coulter, Fullerton, CA, USA) and/or Biotek Multiflo system (Winooski, VT, USA). F-cAMP-loaded U937 cells (2000/well) were seeded into 384-well polypropylene plates (Greiner Bio-One 784201, Monroe, NC, USA). Cells were treated with compounds (10 μM final concentration) from the Prestwick Chemical Library (Illkirch, France) or […] Collection (MicroSource, Gaylordsville, CT, USA) delivered by pintool (V&P Scientific, San Diego, CA), at a final DMSO concentration of 1%. Plates were foil-sealed with AlumaSeal 384™ (Excel Scientific, Victorville, CA, USA), and incubated inverted overnight. Sample plates were analyzed by CyAn flow cytometers (Beckman-Coulter) configured with HyperCyt high-throughput auto-sampler systems (IntelliCyt, Albuquerque, NM, USA) using 488 nm excitation to assess FL-1 (530/40) MFI levels.
Data were analyzed with HyperView software (IntelliCyt) and time-gated to determine data from each well. Wells with ≥ 50 events were evaluated for FL-1 MFI values. Samples with MFI values ≥ 2 standard deviations above the plate mean negative control values were considered “hit” compounds.
To validate sample data and decrease the number of false-positive hits, compounds were assayed in a high-throughput dose response assay. Plates were set up as in the HTS, with the exception that the plate formats contained 10-well dose responses for each hit compound, at final concentrations ranging from 30 μM to 4 nM.
The dose response data were normalized for percent response based on sample FL-1 MFI values in comparison to untreated F-cAMP-loaded cells kept at 4°C overnight or at time = 0, and were fitted by GraphPad Prism 5 software (GraphPad Software, La Jolla, CA, USA) for sigmoidal dose response with constrained hill slope = 1.

U937 cells [2] = test: Cell viability by 7-AAD exclusion with or without KH7; type: cell-based, human; details: overnight, 6 μM KH7, 7-AAD staining
Procedure: Cells treated with ICE and control samples were incubated with 1 μg/ml of 7-AAD for 20-60 minutes at 4°C on a rotator in the dark, and analyzed by flow cytometry according to manufacturer instructions. Gates were set on 7-AAD negative and positive events based on histograms. Percent of 7-AAD negative events is shown.

697 = test: CellTiter-Glo cell viability; type: cell-based; details: Homo sapiens; overnight, n = 6, ± SEM; read-out: Compound EC50, 697 (cell viability)
Procedure: (§3) Cell viability was determined with the CellTiter-Glo® Luminescent Cell Viability Assay (Promega). Greiner 655083 had 100 μL cRPMI +/− 4×10^4 cells/well, and dose response curves of compounds ranged from 100 μM to 1.53 nM (1% DMSO). Wells with DMSO-only served as negative controls. Samples were incubated overnight, and the assay was completed according to the manufacturer's protocol. Plates were analyzed using a Victor^3V™ 1420 Multilabel Counter (Perkin Elmer).

RS4;11 = test: CellTiter-Glo cell viability; type: cell-based; details: Homo sapiens, overnight, n = 6, ± SEM, read-out: Compound EC50, RS4;11 (cell viability)
Procedure: as §3

Sup B15 = test: CellTiter-Glo cell viability; type: cell-based; details: Homo sapiens, overnight, n = 6, ± SEM, read-out: Compound EC50, Sup B15 (cell viability)
Procedure: as §3

U937 cells [3] = test: CellTiter-Glo cell viability; type: cell-based; details: Homo sapiens, U-937; overnight, n = 8, ± SEM, fit top = 100, bottom = 0, hill slope = −1; read-out: Compound EC50, U937 (cell viability)
Procedure: as §3

B-ALL cell lines [4] = test: CellTiter-Glo cell viability, all B-ALL cell lines together; type: cell-based, human; details: for EC50: Homo sapiens, mean of converged EC50s of six B-ALL lines, read-out: Compound EC50, Mean B-ALL (cell viability); for Sensitivity of B-ALL lines compared with U937 cells: cell viability, overnight
Procedure: as §3

U937 cells [5] = test: MultiCyt 4-Plex apoptosis assay; type: cell-based, human; details: Homo sapiens, U-937, 24 h
Procedure: Apoptosis was determined using MultiCyt® 4-Plex Apoptosis Screening Kit (IntelliCyt, cat. 90053). The kit provides four different apoptosis endpoints that include effector caspases 3 and 7 activation, phosphatidylserine surface expression, mitochondrial membrane depolarization and cell membrane integrity. […] Cell membrane damage is detected by the uptake of a proprietary DNA intercalating agent analogous to 7-aminoactinomycin D.
384-well plates (Greiner 784201), pre-loaded with 5 μL cRPMI were stamped using a pintool with 100 nl of DMSO-solubilized compounds from the 100-fold concentrated stock solution. Next, 5 μL U937 cells (2 × 10^6/ml in cRPMI) were added to wells and mixed, and plates were foil-sealed. Compounds (Table 1) were tested in dose response at final concentrations ranging from 15.2 nM to 100 μM (1% DMSO final). Vehicle (DMSO) was used as a negative control. After 24 h incubation under culture conditions, the IntelliCyt MultiCyt 4-Plex Apoptosis Screening Kit was used according to manufacturer's protocol. The data were acquired using iQue Screener Platform (IntelliCyt). Singlet cell populations were analyzed for individual measures of apoptosis, and gates were set based on control histograms.

[6] = test system: primary B-ALL patient samples; test: CellTiter-Glo cell viability of primary ALL patient samples ex vivo; type: cell-based, human; details: for EC50: Homo sapiens
Procedure: Bone marrow samples were acquired at diagnosis from pediatric B-ALL patients. Mononuclear cells were enriched by centrifugation in Ficoll-Paque (GE Healthcare, cat. 17-1440-02) and aliquoted for storage in liquid nitrogen until use. Samples were thawed in a 37°C water bath, resuspended in 20% FBS cRPMI, and centrifuged to remove freezing medium. Cells were resuspended in conditioned medium (DMEM, 10% FBS, 50 U/ml penicillin-streptomycin, 2 mM L-glutamine) from HS-5 stromal cell cultures.
as §3
For primary ALL patient samples, media consisted of 50% cRPMI, 50% conditioned DMEM from HS-5 stromal cell cultures and compounds. Cell densities ranged from 28,000-68,000 cells/well, and plates were foil-sealed prior to incubation.

normal human PBMCs = test: CellTiter-Glo cell viability; type: cell-based; details: PBMC, overnight, n = 6, ± SEM, read-out: Compound EC50, PBMCs (cell viability)
Procedure: Healthy PBMCs were obtained from volunteers. Mononuclear cells were purified using Mono-Poly resolving medium (MP Biomedicals, cat. 091698049) according to manufacturer's instructions. PBMCs were resuspended in cRPMI and kept on ice prior to use.
as §3

[7] = set-up: method as in as printed in each cell; details: previously reported; cited from earlier work
B-ALL cell lines [8] = test: F-cAMP efflux in B-ALL cell lines with MK-571; type: cell-based, human; details: 37°C
Procedure: as §1, §2

Reh = test: CellTiter-Glo cell viability; type: cell-based; details: Homo sapiens, overnight, n = 6, ± SEM, read-out: Compound EC50, Reh (cell viability)
Procedure: as §3

VLA-4 = target: VLA-4; set-up: method as in PMID 18534032; details: cited from earlier work
[9] = mean of converged EC50s, read-out: Compound EC50, Means (of the apoptosis endpoints)
[10] = n = 4, ± SEM, read-out: Compound EC50, Cell membrane damage
[11] = n = 4, ± SEM, read-out: Compound EC50, Mitochondrial depolarization
[12] = mean of converged EC50s of six patient samples, read-out: Compound EC50 (Sample means), cell viability
[13] = primary B-ALL sample, duplicate, ± SEM, read-out: Compound EC50 (Patient no. 1), cell viability
[14] = primary B-ALL sample, duplicate, ± SEM, read-out: Compound EC50 (Patient no. 2), cell viability
[15] = primary B-ALL sample, duplicate, ± SEM, read-out: Compound EC50 (Patient no. 3), cell viability
[16] = primary B-ALL sample, duplicate, ± SEM, read-out: Compound EC50 (Patient no. 5), cell viability
[17] = primary B-ALL sample, duplicate, ± SEM, read-out: Compound EC50 (Patient no. 6), cell viability

Compound: CC1=NCCc2c1[nH]c1cc(O)ccc21 [harmalol]
- Outcome of screen for inhibitors of cAMP efflux after dose-response validation (U937 cells [1]): potentially active

Compound: C[C@@H]1CC[C@H]2[C@@H](C)C(=O)O[C@@H]3O[C@@]4(C)CC[C@@H]1[C@]32OO4 [artemisinin]
- Outcome of screen for inhibitors of cAMP efflux after dose-response validation (U937 cells [1]): potentially active

Compound: CC(Sc1nc2ccccc2[nH]1)C(=O)N/N=C/c1cc(Br)ccc1O (stereo not shown) [KH7]
- Effect of KH7 on cell viability loss induced by ICE (U937 cells [2]): significant protective effect

- EC50 (RS4;11): 33.7 ± 10.6 µM
- EC50 (U937 cells [3]): 7.99 ± 3.24 µM
- EC50 (U937 cells [5]; [9]): 24.6 µM
- EC50 (U937 cells [5]; n = 4, ± SEM, read-out: Compound EC50, Annexin-V +): 29.5 ± 1.85 µM
- EC50 (U937 cells [5]; [11]): 25.7 ± 0.82 µM
Compound: C[C@H]1[C@H](OC(=O)CCC(=O)O)O[C@@H]2O[C@@]3(C)CC[C@H]4[C@H](C)CC[C@@H]1[C@@]24OO3 [Artesunate]
- EC50 697: 99.6 ± 27.7 µM
- EC50 (Sup B15): 326 ± 88.5 µM
- EC50 (B-ALL cell lines [4]): 153 µM
- Sensitivity of B-ALL lines compared with U937 cells (B-ALL cell lines [4]): decreased sensitivity
- EC50 (U937 cells [5]; [10]): 18.6 ± 1.89 µM
- EC50 [6, 12]: 84.6 µM
- EC50 [6, 13]: 116 ± 55.2 µM
- EC50 [6, 14]: 115 ± 22.7 µM
- EC50 [6, 15]: 66 ± 27.6 µM
- EC50 [6, 16]: 24.6 ± 12.2 µM
- EC50 [6, 17]: 100 ± 48.7 µM
- EC50 (normal human PBMCs): 280 ± 91.4 µM
- Anticancer effects [7]: ↓metastasis/migration [80, 83]; ↓VEGF expression/angiogenesis [70, 76, 80]; ↓cyclins B & D1, Cdks 2, 4, 6[70]; ↑p21, p27 [70]
- Potential mechanism(s) of action [7]: ↓NFκB & AP-1 activation [83, 130, 131]; ↓nitric oxide, cAMP-mediated, Wnt/β-catenin, PI3K/Akt signaling [81, 130, 131]; ↑ROS [70, 72, 78]

- EC50 (U937 cells [3]): 94.2 ± 35.5 µM
- EC50 (U937 cells [1]; Homo sapiens, U-937, read-out: EC50 for cAMP efflux blocking, U937 cells loaded with F-cAMP, overnight, 37°C): ~30 µM
Compound: CN(C)C(=O)CCSC(SCCC(=O)O)c1cccc(/C=C/c2ccc3ccc(Cl)cc3n2)c1 (stereo not shown) [MK-571]
- Active F-cAMP efflux in the presence of MK-571 (B-ALL cell lines [8]; Group 1: Sup-B15 and MHH-Call3, overnight): blocked completely
- F-cAMP removed with MK-571 (B-ALL cell lines [8]; Group 2: Reh and RS4;11, overnight, 75-80% without MK-571): 30-40%
- F-cAMP removed with MK-571 (B-ALL cell lines [8]; Group 3: 697 and Nalm-6, overnight, > 90% without MK-571): 60-70%
- EC50 697: 126 ± 109 µM
- EC50 (Sup B15): 144 ± 47.8 µM
- EC50 (Reh): 226 ± 93.6 µM
- Block of loss of F-cAMP probe fluorescence (U937 cells [1]; U937 cells, 24 h, 37°C): A significant part of this loss was blocked
- EC50 (B-ALL cell lines [4]): 165 µM
- EC50 [6, 12]: 298 µM
- EC50 [6, 13]: 298 ± 140 µM
- EC50 (normal human PBMCs): 157 ± 66.4 µM

Compound: O=C1c2ccc(O)c(O)c2C(=O)c2c(O)ccc(O)c21 [quinalizarin]
- Outcome of screen for inhibitors of cAMP efflux after dose-response validation (U937 cells [1]): potentially active

- EC50 (RS4;11): 26.2 ± 7.94 µM
- EC50 (U937 cells [3]): 1.32 ± 0.58 µM
- EC50 (U937 cells [5]; [9]): 16.4 µM
- EC50 (U937 cells [5]; [11]): 9.21 ± 7.52 µM
Compound: C[C@H]1[C@@H](O)O[C@@H]2O[C@@]3(C)CC[C@H]4[C@H](C)CC[C@@H]1[C@@]24OO3 [Dihydroartemisinin]
- EC50 697: 55.5 ± 16.8 µM
- EC50 (Sup B15): 141 ± 49.5 µM
- EC50 (B-ALL cell lines [4]): 74.4 µM
- Sensitivity of B-ALL lines compared with U937 cells (B-ALL cell lines [4]): decreased sensitivity
- EC50 (U937 cells [5]; [10]): 23.7 ± 19.4 µM
- EC50 [6, 12]: 46.6 µM
- EC50 [6, 14]: 47.5 ± 12.2 µM
- EC50 [6, 15]: 83.2 ± 74.2 µM
- EC50 [6, 16]: 11.5 ± 5.02 µM
- EC50 [6, 17]: 44.1 ± 32.2 µM
- Cell viability vs. vehicle treated sample at lower concentrations ([6]; samples from patients no. 1 and no. 5): significant increase in cell viability
- EC50 (normal human PBMCs): 128 ± 34.2 µM
- Anticancer effects [7]: ↓VEGF expression & angiogenesis [99, 101, 102]; ↓cyclin B, CDC25 [87]

Compound: 4-((N'-2-methylphenyl)ureido)-phenylacetyl-L-leucyl-L-aspartyl-L-valyl-L-prolyl-L-alanyl-L-alanyl-L-lysine-FITC [LDV-FITC]
- Kd (VLA-4; high affinity state, read-out: Kd for physiologically activated VLA-4): 0.001 to 0.002 µM
- Kd (VLA-4; low affinity state, read-out: Kd for binding to resting VLA-4): ~0.012 µM
